Reference: patent US20080070868A1, “Novel Thiazole Inhibitors of Fructose 1,6-bisphosphatase” (Metabasis Therapeutics, Inc., priority 2004, published 2008)

system: Sprague-Dawley rats; assay: Glucose lowering following oral administration to the fasted, normal rat; format: in vivo; conditions: maximum lowering relative to saline controls, 10 mg/kg oral, 18-h fasted rats
Method: Compounds were administered by oral gavage to 18-h fasted, Sprague-Dawley rats (250-300 g, n=3/4/group) at a dose of 10 mg/kg. Phosphonic acids (active moieties) were prepared in deionized water, and the solution adjusted to neutrality with sodium hydroxide. Prodrugs were dissolved in polyethylene glycol (mw 400). Blood samples were taken via tail vein nick immediately prior to dosing and at 1 h intervals thereafter. Blood glucose was analyzed by means of a HemoCue glucose analyzer (HemoCue Inc., Mission Viejo, Calif.). The table below indicates the maximum % glucose lowering achieved relative to control animals dosed with saline.

| Structure (SMILES) | inhibition in vivo at 10 mg/kg |
| --- | --- |
| CCOC(=O)C(C)(C)NP(=O)(NC(C)(C)C(=O)OCC)c1ccc(-c2nc(N)sc2C(=O)c2cccc(F)c2)o1 [Compound 2.27] | 6% |
| Cc1ccccc1C(=O)c1sc(N)nc1-c1ccc(P(=O)(NC(C)(C)C(=O)OC(C)C)NC(C)(C)C(=O)OC(C)C)o1 [Compound 2.21] | 9% |
| CCOC(=O)[C@H](C)OP(=O)(NC(C)(C)C(=O)OCC)c1ccc(-c2nc(N)sc2C(=O)C(C)(C)C)o1 (some centres unmarked) [Compound 5.9] | 10% |
| CCOC(=O)C(C)(C)NP(=O)(NC(C)(C)C(=O)OCC)c1ccc(-c2nc(N)sc2C(=O)C2CCC2)o1 [Compound 2.29] | 12% |
| CCOC(=O)[C@H](C)NP(=O)(N[C@@H](C)C(=O)OCC)c1ccc(-c2nc(N)sc2C(=O)c2ccccc2C)o1 [Compound 2.14, 2-amino-5-(2-methylbenzoyl)-4-{[5-(N,N′-((S)-1-ethyl-oxycarbonyl)ethyl)-phosphonamido]furan-2-yl}thiazole] | 20% |
| CCOC(=O)OCOP(=O)(OCOC(=O)OCC)c1ccc(-c2nc(N)sc2C(=O)C(C)(C)C)o1 [Compound 8.3, 2-amino-5-(2,2-dimethylpropionyl)-4-{[5-(O,O′-bis(ethoxycarbonyl-oxymethyl)phosphono)]furan-2-yl}thiazole] | 24% |
| CC(C)OC(=O)[C@H](C)NP(=O)(N[C@@H](C)C(=O)OC(C)C)c1ccc(-c2nc(N)sc2C(=O)c2cccc(F)c2)o1 [Compound 2.18, 2-amino-5-(3-fluorobenzoyl)-4-{[5-(N,N′-((S)-1-isopropyl-oxycarbonyl)ethyl)-phosphonamido]furan-2-yl}thiazole] | 13% |
| CCC(CC)C(=O)c1sc(N)nc1-c1ccc(P(=O)(NC(C)(C)C(=O)OC(C)C)NC(C)(C)C(=O)OC(C)C)o1 [Compound 2.25] | 10% |
| CCOC(=O)C(C)(C)NP(=O)(OCC(=O)OCc1ccccc1)c1ccc(-c2nc(N)sc2C(=O)C(C)(C)C)o1 (centres unmarked) [Compound 5.5] | 20% |
| Cc1ccc(C(=O)c2sc(N)nc2-c2ccc(P(=O)(NC(C)(C)C(=O)OC(C)C)NC(C)(C)C(=O)OC(C)C)o2)cc1 [Compound 2.20] | 6% |
| CCOC(=O)COP(=O)(NC(C)(C)C(=O)OCC)c1ccc(-c2nc(N)sc2C(=O)C2CCC2)o1 (centres unmarked) [Compound 5.4] | 16% |
| CC(C)(C)C(=O)OCOP(=O)(OCOC(=O)C(C)(C)C)c1ccc(-c2nc(N)sc2C(=O)C(C)(C)C)o1 [Compound 8.4, 2-amino-5-(2,2-dimethylpropionyl)-4-{[5-(O,O′-bis(pivalyloxymethyl)phosphono)]furan-2-yl}thiazole] | 6% |
| CCOC(=O)[C@H](C)NP(=O)(N[C@@H](C)C(=O)OCC)c1ccc(-c2nc(N)sc2C(=O)c2cccc(F)c2)o1 [Compound 2.19, 2-amino-5-(3-fluorobenzoyl)-4-{[5-(N,N′-((S)-1-ethyloxy-carbonyl)ethyl)-phosphonamido]furan-2-yl}thiazole] | 16% |
| CC(C)OC(=O)C(C)(C)NP(=O)(NC(C)(C)C(=O)OC(C)C)c1ccc(-c2nc(N)sc2C(=O)c2cccc(F)c2)o1 [Compound 2.28] | 10% |
| CCC(C)(C)C(=O)c1sc(N)nc1-c1ccc(P(=O)(NCC(=O)OC(C)(C)C)NCC(=O)OC(C)(C)C)o1 [Compound 2.12, 2-amino-5-(2,2-dimethylbutyryl)-4-{[5-(N,N′-tert-butyloxycarbonyl-methyl)phosphonamido]furan-2-yl}thiazole] | 10% |
| CCOC(=O)[C@H](C)NP(=O)(N[C@@H](C)C(=O)OCC)c1ccc(-c2nc(N)sc2C(=O)C(C)(CC)CC)o1 [Compound 2.7, 2-amino-5-(2-ethyl-2-methylbutyryl)-4-{[5-(N,N′-((S)-1-ethoxycar-bonyl)ethyl)phosphonamido]furan-2-yl}thiazole] | 10% |
| CCOC(=O)C(C)(C)NP(=O)(NC(C)(C)C(=O)OCC)c1ccc(-c2nc(N)sc2C(=O)c2ccc(C)cc2)o1 [Compound 2.17] | 10% |
